Laboratory results reported in ChEMBL document CHEMBL1201862, “PubChem BioAssay data set” (2004).
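The compound was tested at five concentrations on cells cultured in 96-well plates, with a 48-hour exposure period. GI50 = concentration required for 50% inhibition of growth.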 Calls of active or inactive are those of the source. No stated cut-off is given here; in the data, active = GI50 up to about 1.1 µM and inactive = higher.

Experiments:
Experiment in all cases: NCI anticancer screen, dose series, 48 h
[1] = system: M19-MEL
[2] = system: DMS-114
[3] = system: DMS-273
[4] = system: LXFL 529
[5] = system: XF498
[6] = system: SNB-78
[7] = system: DLD-1
[8] = system: HOP-18
[9] = system: RXF 631

Row | SMILES | GI50 [1] | GI50 [2] | GI50 [3] | GI50 [4] | GI50 [5] | GI50 [6] | GI50 [7] | GI50 [8] | GI50 [9]
1 | O=c1nc(-c2ccccc2)c2c3c(cccn13)CCC2 | > 100 µM (inactive) | > 100 µM (inactive) | > 100 µM (inactive) | > 100 µM (inactive) | > 100 µM (inactive) | > 100 µM (inactive) | > 100 µM (inactive) |  | 
2 | COc1ccc(C(O)C(c2ccc(OCc3ccccc3)cc2)c2ccc(OCc3ccccc3)cc2)cc1 (stereo not given) | > 100 µM (inactive) | > 100 µM (inactive) | > 100 µM (inactive) | > 100 µM (inactive) | > 100 µM (inactive) | > 100 µM (inactive) | > 100 µM (inactive) |  | 
3 | CN(O)C(=S)c1ccccc1 | 1.19 µM (inactive) | 1.18 µM (inactive) | 0.893 µM (active) | 0.379 µM (active) |  | 6.43 µM (inactive) | 0.619 µM (active) | > 100 µM (inactive) | 1.48 µM (inactive)
4 | Cc1cccc(C(C)(C)C)c1NC(=O)CC1C(=O)Nc2ccccc2[S+]1[O-] (stereo not given) |  |  | 38.1 µM (inactive) | 37.8 µM (inactive) | 68.9 µM (inactive) | 54.6 µM (inactive) | 44.9 µM (inactive) |  | 70.3 µM (inactive)
5 | CN1c2ccccc2NC(CC(=O)O)C2CC=CN21 (stereo not given) | > 100 µM (inactive) | > 100 µM (inactive) | > 100 µM (inactive) | > 100 µM (inactive) | > 100 µM (inactive) |  |  | 0.117 µM (active) | > 100 µM (inactive)
6 | O=C(O/N=C1/CCC/C1=C\c1ccccc1)c1ccc(Cl)cc1 | > 100 µM (inactive) |  | > 76.9 µM (inactive) | 47.4 µM (inactive) | 61.5 µM (inactive) | 32.8 µM (inactive) | 23.9 µM (inactive) | > 100 µM (inactive) | 
7 | N=C(c1ccccc1)N(O)C1CCCCC1 | > 100 µM (inactive) | > 100 µM (inactive) | > 100 µM (inactive) | > 100 µM (inactive) |  | > 100 µM (inactive) | > 100 µM (inactive) | > 100 µM (inactive) | 
8 | CN1CC2(CCCCC2)C(O)C12C=CCCC2 (stereo not given) | > 100 µM (inactive) | > 100 µM (inactive) | > 100 µM (inactive) | > 100 µM (inactive) | > 100 µM (inactive) | > 100 µM (inactive) | > 100 µM (inactive) |  | 
9 | Cc1nc(-n2nc(-c3ccccc3)cc2-c2ccccc2)sc1C(/C=C/c1ccc([N+](=O)[O-])cc1)=N/NC(N)=S | 42 µM (inactive) | 16.9 µM (inactive) |  | 24.1 µM (inactive) |  | 18.7 µM (inactive) | 43 µM (inactive) |  | 
10 | Cc1cccc(/C=N/N=C(\N)NO)n1 | 68.7 µM (inactive) | 12.1 µM (inactive) | 35.7 µM (inactive) | 6.52 µM (inactive) | 39.4 µM (inactive) | > 100 µM (inactive) | 18.7 µM (inactive) |  | > 100 µM (inactive)
11 | [N-]=[N+]=Nc1ccccc1-[n+]1noc([O-])c1Br | > 100 µM (inactive) | > 100 µM (inactive) |  | > 100 µM (inactive) |  |  | > 100 µM (inactive) | > 100 µM (inactive) | 
12 | CN(/N=C\c1ccnc2ccccc12)c1ccc([N+](=O)[O-])cc1 | 65.3 µM (inactive) |  | 42.5 µM (inactive) | 54.8 µM (inactive) | > 100 µM (inactive) | > 100 µM (inactive) |  |  | > 100 µM (inactive)
13 | O=C(CC(=O)N1N=C(c2ccccc2)C(/N=N/c2ccc(C(=O)O)cc2)C1=O)Nc1ccc(F)cc1 (stereo not given) | 74 µM (inactive) | 34.5 µM (inactive) | 27.2 µM (inactive) | 23.5 µM (inactive) | 20.4 µM (inactive) | 42.8 µM (inactive) | 20.9 µM (inactive) |  | 36.4 µM (inactive)
14 | COc1cccc2c1C1(O)C2CCCC12OCCCO2 (stereo not given) | > 100 µM (inactive) | > 100 µM (inactive) | > 100 µM (inactive) | > 100 µM (inactive) |  | > 100 µM (inactive) | > 100 µM (inactive) | > 100 µM (inactive) | 
15 | COc1cc(C(C)O)c[n+](Cc2ccccc2)c1 (stereo not given) | > 100 µM (inactive) | > 100 µM (inactive) | > 100 µM (inactive) | > 100 µM (inactive) | > 31.6 µM (inactive) | > 100 µM (inactive) | > 100 µM (inactive) | > 100 µM (inactive) | > 100 µM (inactive)
16 | O=[N+]([O-])C=C1c2ccccc2-c2ccccc21 |  |  |  | 14.9 µM (inactive) |  | 17.4 µM (inactive) | 2.84 µM (inactive) |  | 
17 | COC(=O)C1Cc2c(n(C)c3ccccc23)C(CCC(=O)O)N1Cc1ccccc1 (stereo not given) | 32.1 µM (inactive) | 26.7 µM (inactive) | 31.6 µM (inactive) | 37 µM (inactive) | 28.1 µM (inactive) | 32.8 µM (inactive) | > 100 µM (inactive) |  | 36.9 µM (inactive)
18 | O=[N+]([O-])c1nccn1COCCO |  | > 100 µM (inactive) | > 100 µM (inactive) | > 100 µM (inactive) | > 100 µM (inactive) | > 100 µM (inactive) | > 100 µM (inactive) | 28.1 µM (inactive) | > 100 µM (inactive)
19 | CC1=NN(C(=O)c2ccc([N+](=O)[O-])cc2)C(=O)C1/N=N/c1ccccc1C(=O)O (stereo not given) | > 100 µM (inactive) | > 100 µM (inactive) | > 100 µM (inactive) | > 100 µM (inactive) |  | > 100 µM (inactive) | > 100 µM (inactive) |  | 
20 | O=C(CC1(O)C(=O)Nc2ccccc21)c1ccc(O)cc1 (stereo not given) | 70.1 µM (inactive) | > 100 µM (inactive) | > 100 µM (inactive) | > 100 µM (inactive) |  | > 100 µM (inactive) | > 100 µM (inactive) | > 100 µM (inactive) | > 100 µM (inactive)
21 | Oc1ncnc2c1nnn2CCCn1nnc2c(O)ncnc21 | > 100 µM (inactive) | > 100 µM (inactive) | > 100 µM (inactive) | > 100 µM (inactive) | > 100 µM (inactive) | > 100 µM (inactive) | > 100 µM (inactive) | > 100 µM (inactive) | 
22 | COC(=O)c1c(C(=O)OC)c(-c2ccccc2)n(-c2ccccc2)c(=O)c1-c1ccccc1 | 92.3 µM (inactive) | 74.1 µM (inactive) | 87.7 µM (inactive) | > 100 µM (inactive) | 23.1 µM (inactive) | 54.7 µM (inactive) | 66.5 µM (inactive) |  | 
23 | CCC(C)CN1C(=O)NC(C)(Cc2ccccc2)C1=O (stereo not given) | > 100 µM (inactive) | > 100 µM (inactive) | > 100 µM (inactive) | > 100 µM (inactive) | > 100 µM (inactive) | > 100 µM (inactive) | > 100 µM (inactive) | > 100 µM (inactive) | 
24 | COc1ccc(Cc2cc3c(cc2OCC(=O)O)OCO3)cc1 | > 100 µM (inactive) | > 100 µM (inactive) |  |  |  |  | > 100 µM (inactive) |  | > 100 µM (inactive)
25 | O=C1c2ccccc2C(=O)c2c1ccc1c3ccccc3n(-c3ccccc3)c21 | 18.8 µM (inactive) |  | 18.6 µM (inactive) | 16.8 µM (inactive) |  | 21.1 µM (inactive) | 17.1 µM (inactive) | 14.5 µM (inactive) | 7.94 µM (inactive)
26 | C/C=C1/CCC2c3[nH]c4ccccc4c3CCN2C1 (stereo not given) | 86.3 µM (inactive) | 93.8 µM (inactive) | > 100 µM (inactive) | > 100 µM (inactive) | 55.6 µM (inactive) | > 100 µM (inactive) | > 100 µM (inactive) |  | 
27 | O=CN/C=C/c1ccccc1 | > 100 µM (inactive) |  | > 100 µM (inactive) | > 100 µM (inactive) |  | > 100 µM (inactive) | > 100 µM (inactive) | > 100 µM (inactive) | > 100 µM (inactive)
